Data from patent US9969749B2, “Inhibitors of IRAK4 activity” (MERCK SHARP & DOHME CORP., priority 2014, dated 2018).
pIC50: −log10 of the molar value.

Molecular target: IRAK4 (Homo sapiens (Human), UniProt Q9NWZ3)
Experiment: IRAK4 Kinase Assay (IMAP fluorescence polarization)
Format: biochemical
Conditions: 0.5 nM GST tagged IRAK4, 100 μM ATP, 100 nM fluorescent peptide substrate RP7030, 30 minutes at 25° C.
How it was run: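 GST-tagged IRAK4 (0.5 nM) phosphorylates 100 nM fluorescent peptide with 100 μM ATP in 10 mM Tris pH 7.2, 1 mM MgCl2, 1 mM DTT, 0.01% Tween 20 for 30 min at 25 °C. Phosphorylation read as IMAP nanoparticle-binding fluorescence polarization after stop reagent.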

IRAK4, sequence (Q9NWZ3 whole entry): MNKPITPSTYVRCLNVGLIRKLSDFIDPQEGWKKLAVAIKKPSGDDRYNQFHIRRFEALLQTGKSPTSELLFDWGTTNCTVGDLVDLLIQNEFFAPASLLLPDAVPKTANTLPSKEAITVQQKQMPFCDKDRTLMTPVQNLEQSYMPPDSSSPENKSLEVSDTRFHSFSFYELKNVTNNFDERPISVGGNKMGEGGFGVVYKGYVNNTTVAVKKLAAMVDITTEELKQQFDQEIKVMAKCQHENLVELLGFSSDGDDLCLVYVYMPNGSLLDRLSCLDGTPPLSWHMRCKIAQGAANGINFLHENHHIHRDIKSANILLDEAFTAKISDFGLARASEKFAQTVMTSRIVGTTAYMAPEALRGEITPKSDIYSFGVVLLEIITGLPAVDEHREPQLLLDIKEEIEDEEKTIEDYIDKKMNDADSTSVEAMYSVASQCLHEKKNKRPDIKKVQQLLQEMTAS

| pIC50 | Structure (SMILES) |
| --- | --- |
| 8.30 | CNc1cncc(-c2ccc3ncnc(N[C@H]4CC[C@H](N5CCC[C@@H](CN6CCOCC6)C5)CC4)c3c2)c1 [Example 5-12, 6-[5-(methylamino)pyridin-3-yl]-N-{trans-4-[(3S)-3-(morpholin-4-ylmethyl)piperidin-1-yl]cyclohexyl}quinazolin-4-amine] |
| 8.10 | CNc1cncc(-c2ccc3ncnc(N[C@H]4CC[C@H](N5CCC(CN6CCOCC6)CC5)CC4)c3c2)c1 [Example 5-10, 6-[5-(methylamino)pyridin-3-yl]-N-{trans-4-[4-(morpholin-4-ylmethyl)piperidin-1-yl]cyclohexyl}quinazolin-4-amine] |
| 8.70 | c1nc(N[C@H]2CC[C@H](N3CCOCC3)CC2)c2cc(-c3cnoc3)ccc2n1 [Example 2-28, 6-(isoxazol-4-yl)-N-[trans-4-(morpholin-4-yl)cyclohexyl]quinazolin-4-amine] |
| 7.21 | N#Cc1nn[nH]c1-c1ccc2ncnc(N[C@H]3CC[C@H](N4CCOCC4)CC3)c2c1 [Example 2-11, 5-{4-[(trans-4-morpholin-4-ylcyclohexyl)amino]quinazolin-6-yl}-1H-1,2,3-triazole-4-carbonitrile] |
| 9.00 | COC1CN([C@H]2CC[C@H](Nc3ncnc4ccc(-c5cncc(O)c5)cc34)CC2)C1 [Example 5-2, 5-(4-{[trans-4-(3-methoxyazetidin-1-yl)cyclohexyl]amino}quinazolin-6-yl)pyridin-3-ol] |
| 9.00 | C[C@@H]1CN([C@H]2CC[C@H](Nc3ncnc4ccc(-c5cnc(F)c(N)c5)cc34)CC2)C[C@H](C)O1 [Example 5-19, 6-(5-amino-6-fluoropyridin-3-yl)-N-{trans-4-[(2R,6S)-2,6-dimethylmorpholin-4-yl]cyclohexyl}quinazolin-4-amine] |
| 9.00 | CN(C)[C@H]1CC[C@H](Nc2ncnc3ccc(-c4cncc(O)c4)cc23)CC1 [Example 3-1, 5-(4-(((Trans)-4-(dimethylamino)cyclohexyl)amino)quinazolin-6-yl)pyridin-3-ol] |
| 9.00 | CNc1cc(-c2ccc3ncnc(N[C@H]4CC[C@H](N5CCN(C(=O)C6CC6)CC5)CC4)c3c2)cnc1F [Example 5-28, cyclopropyl {4-[trans-4-({6-[6-fluoro-5-(methylamino)pyridin-3-yl]quinazolin-4-yl}amino)cyclohexyl]piperazin-1-yl}methanone] |
| 8.52 | CNc1cncc(-c2ccc3ncnc(N[C@H]4CC[C@H](N5CCC(F)(F)CC5)CC4)c3c2)c1 [Example 5-8, N-[trans-4-(4,4-difluoropiperidin-1-yl)cyclohexyl]-6-[5-(methylamino)pyridin-3-yl]quinazolin-4-amine] |
| 6.90 | Cc1c(-c2ccc3ncnc(N[C@H]4CC[C@H](N5CCOCC5)CC4)c3c2)cnn1C [Example 2-21, 6-(1,5-dimethyl-1H-pyrazol-4-yl)-N-[trans-4-(morpholin-4-yl)cyclohexyl]quinazolin-4-amine] |

More lines, now with the values behind:

| Structure (SMILES) | pIC50 |
| --- | --- |
| CNc1cncc(-c2ccc3ncnc(N[C@H]4CC[C@H](N5CCOCC5)CC4)c3c2)c1 [Example 1-81, 6-[5-(methylamino)pyridin-3-yl]-N-(trans-4-morpholin-4-ylcyclohexyl)quinazolin-4-amine] | 8.70 |
| COC(=O)c1cncc(-c2ccc3ncnc(N[C@H]4CC[C@H](N(C)C)CC4)c3c2)c1 [Example 1-31, methyl 5-(4-{[trans-4-(dimethylamino)cyclohexyl]amino}quinazolin-6-yl)pyridine-3-carboxylate] | 7.35 |
| Clc1cncc(-c2ccc3ncnc(N[C@H]4CC[C@H](N5CCOCC5)CC4)c3c2)c1 [Example 1-99, 6-(5-chloropyridin-3-yl)-N-[trans-4-(morpholin-4-yl)cyclohexyl]quinazolin-4-amine] | 7.96 |
| CN(C)[C@H]1CC[C@H](Nc2ncnc3ccc(-c4ccc5[nH]ccc5c4)cc23)CC1 [Example 1-45, trans-N′-[6-(1H-indol-5-yl)quinazolin-4-yl]-N,N-dimethylcyclohexane-1,4-diamine] | 7.09 |
| CNc1cncc(-c2cc3c(N[C@H]4CC[C@H](N5CCOCC5)CC4)ncnc3cc2F)c1 [Example 1-86, 7-fluoro-6-[5-(methylamino)pyridin-3-yl]-N-(trans-4-morpholin-4-ylcyclohexyl)quinazolin-4-amine] | 7.64 |
| CNc1ncc(-c2ccc3ncnc(N[C@H]4CC[C@H](N(C)C)CC4)c3c2)cn1 [Example 1-13, trans-N,N-dimethyl-N′-{6-[2-(methylamino)pyrimidin-5-yl]quinazolin-4-yl}cyclohexane-1,4-diamine] | 7.55 |
| Cc1cncc(-c2ccc3ncnc(N[C@H]4CC[C@H](N5CCOCC5)CC4)c3c2)c1 [Example 1-93, 6-(5-methylpyridin-3-yl)-N-[trans-4-(morpholin-4-yl)cyclohexyl]quinazolin-4-amine] | 7.59 |
| Cc1noc(C)c1-c1ccc2ncnc(N[C@H]3CC[C@H](N(C)C)CC3)c2c1 [Example 1-24, trans-N′-[6-(3,5-dimethylisoxazol-4-yl)quinazolin-4-yl]-N,N-dimethylcyclohexane-1,4-diamine] | 6.48 |
| CCn1cc(-c2ccc3ncnc(N[C@H]4CC[C@H](N(C)C)CC4)c3c2)cn1 [Example 1-18, trans-N′-[6-(1-ethyl-1H-pyrazol-4-yl)quinazolin-4-yl]-N,N-dimethylcyclohexane-1,4-diamine] | 7.04 |
| Cc1c(-c2cnn(C)c2)ccc2ncnc(N[C@H]3CC[C@H](N4CCOCC4)CC3)c12 [Example 1-77, 5-methyl-6-(1-methyl-1H-pyrazol-4-yl)-N-(trans-4-morpholin-4-ylcyclohexyl)quinazolin-4-amine] | 5.88 |
| CN(C)[C@H]1CC[C@H](Nc2ncnc3ccc(-c4ccc5c(c4)OCCO5)cc23)CC1 [Example 1-49, trans-N′-[6-(2,3-dihydro-1,4-benzodioxin-6-yl)quinazolin-4-yl]-N,N-dimethylcyclohexane-1,4-diamine] | 6.79 |
| CN(C)[C@H]1CC[C@H](Nc2ncnc3ccc(-c4cc[nH]n4)cc23)CC1 [Example 1-12, trans-N,N-dimethyl-N′-[6-(1H-pyrazol-3-yl)quinazolin-4-yl]cyclohexane-1,4-diamine] | 7.77 |
| c1nc(N[C@H]2CC[C@H](N3CCOCC3)CC2)c2cc(-c3cc[nH]n3)ccc2n1 [Example 1-91, N-[trans-4-(morpholin-4-yl)cyclohexyl]-6-(1H-pyrazol-3-yl)quinazolin-4-amine] | 7.70 |
| CN(C)[C@H]1CC[C@H](Nc2ncnc3ccc(-c4cncc(N5CCOCC5)c4)cc23)CC1 [Example 1-23, trans-N,N-dimethyl-N′-{6-[5-(morpholin-4-yl)pyridin-3-yl]quinazolin-4-yl}cyclohexane-1,4-diamine] | 6.30 |
| CN(C)[C@H]1CC[C@H](Nc2ncnc3ccc(-c4cnc(NCCO)nc4)cc23)CC1 [Example 1-43, 2-{[5-(4-{[trans-4-(dimethylamino)cyclohexyl]amino}quinazolin-6-yl)pyrimidin-2-yl]amino}ethanol] | 7.60 |
| CN(C)[C@H]1CC[C@H](Nc2ncnc3ccc(-c4ccc(C#N)nc4)cc23)CC1 [Example 1-27, 5-(4-{[trans-4-(dimethylamino)cyclohexyl]amino}quinazolin-6-yl)pyridine-2-carbonitrile] | 7.37 |
| CN(C)[C@H]1CC[C@H](Nc2ncnc3ccc(-c4ccncc4C#N)cc23)CC1 [Example 1-20, 4-(4-{[trans-4-(dimethylamino)cyclohexyl]amino}quinazolin-6-yl)pyridine-3-carbonitrile] | 7.07 |
